Measured values published in the supplement of paper PMC10307832.

Experiments:
Test in all cases: relative viability (nuclei count vs DMSO), 5 days (fraction); higher = more cells survive
[1] = compound: Cn1nnc2c(C(N)=O)ncn2c1=O [Temozolomide] + CC(=O)Nc1cccc(-n2c(=O)n(C3CC3)c(=O)c3c(Nc4ccc(I)cc4F)n(C)c(=O)c(C)c32)c1 [Trametinib] (partner 0.02 µM)
Method in brief: (§1)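 Medians of duplicate plates are given as relative viability. That measure is the nuclei count in treated wells divided by the count in vehicle wells. Counts were taken on 4× images of lung cancer cell lines in 1536-well plates, 5 days after pin-tool dosing the day after seeding with one drug alone or a fixed anchor-drug dose plus five library-drug doses (not always all listed) in √10 steps.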

Temozolomide + AZD7762 = compound: Cn1nnc2c(C(N)=O)ncn2c1=O [Temozolomide] + NC(=O)Nc1cc(-c2cccc(F)c2)sc1C(=O)N[C@H]1CCCNC1 [AZD7762] (partner 0.2 µM)
Method in brief: as §1

AZD5582 + Decitabine = compound: C[C@@H](C(=O)N[C@@H](C1CCCCC1)C(=O)N2CCC[C@H]2C(=O)N[C@@H]3[C@@H](CC4=CC=CC=C34)OCC#CC#CCO[C@@H]5CC6=CC=CC=C6[C@@H]5NC(=O)[C@@H]7CCCN7C(=O)[C@H](C8CCCCC8)NC(=O)[C@H](C)NC)NC [AZD5582] + Nc1ncn([C@H]2C[C@H](O)[C@@H](CO)O2)c(=O)n1 [Decitabine] (partner 2 µM)
Method in brief: as §1

AZD5582 + Pictilisib = compound: C[C@@H](C(=O)N[C@@H](C1CCCCC1)C(=O)N2CCC[C@H]2C(=O)N[C@@H]3[C@@H](CC4=CC=CC=C34)OCC#CC#CCO[C@@H]5CC6=CC=CC=C6[C@@H]5NC(=O)[C@@H]7CCCN7C(=O)[C@H](C8CCCCC8)NC(=O)[C@H](C)NC)NC [AZD5582] + CS(=O)(=O)N1CCN(Cc2cc3nc(-c4cccc5[nH]ncc45)nc(N4CCOCC4)c3s2)CC1 [Pictilisib] (partner 1 µM)
Method in brief: as §1

Cell Line | relative viability ([1]; first compound 0.2 µM) | relative viability ([1]; first compound 0.6325 µM) | relative viability ([1]; first compound 2 µM) | relative viability ([1]; first compound 6.325 µM) | relative viability ([1]; first compound 20 µM) | relative viability (Temozolomide + AZD7762; first compound 0.2 µM) | relative viability (Temozolomide + AZD7762; first compound 0.6325 µM) | relative viability (Temozolomide + AZD7762; first compound 2 µM) | relative viability (Temozolomide + AZD7762; first compound 6.325 µM) | relative viability (Temozolomide + AZD7762; first compound 20 µM) | relative viability (AZD5582 + Decitabine; first compound 0.001581 µM) | relative viability (AZD5582 + Decitabine; first compound 0.005 µM) | relative viability (AZD5582 + Decitabine; first compound 0.01581 µM) | relative viability (AZD5582 + Decitabine; first compound 0.05 µM) | relative viability (AZD5582 + Pictilisib; first compound 0.001581 µM) | relative viability (AZD5582 + Pictilisib; first compound 0.005 µM) | relative viability (AZD5582 + Pictilisib; first compound 0.01581 µM) | relative viability (AZD5582 + Pictilisib; first compound 0.05 µM)
201T | 0.707 | 0.72 | 0.725 | 0.681 | 0.714 | 0.648 | 0.649 | 0.746 | 0.566 | 0.519 | 0.866 | 0.913 | 0.856 | 1.02 | 0.697 | 0.733 | 0.703 | 0.808
A549 | – | – | – | – | – | – | – | – | – | – | 0.214 | 0.271 | 0.211 | 0.263 | 0.474 | 0.477 | 0.585 | 0.505
A-427 | 0.807 | 0.711 | 0.69 | 0.502 | 0.458 | 0.758 | 0.744 | 0.698 | 0.472 | 0.422 | 0.496 | 0.582 | 0.573 | 0.53 | 0.567 | 0.671 | 0.734 | 0.587
ABC-1 | – | – | – | – | – | 0.712 | 0.761 | 0.761 | 0.762 | 0.763 | 1.06 | 1.08 | 0.931 | 1.36 | 0.586 | 0.93 | 0.478 | 0.679
BEN | 0.813 | 1.12 | 1.1 | 1 | 0.853 | 0.712 | 0.616 | 0.779 | 0.689 | 0.678 | 0.699 | 0.668 | 0.683 | 0.62 | 0.54 | 0.561 | 0.654 | 0.534
CAL-12T | 0.285 | 0.369 | 0.337 | 0.418 | 0.268 | 0.645 | 0.618 | 0.628 | 0.657 | 0.699 | – | – | – | – | 0.305 | 0.314 | 0.265 | 0.351
COR-L23 | 0.624 | 0.614 | 0.641 | 0.534 | 0.545 | – | – | – | – | – | 0.476 | 0.441 | 0.445 | 0.481 | 0.71 | 0.818 | 0.621 | 0.717
COR-L 105 | 0.425 | 0.42 | 0.395 | 0.431 | 0.402 | – | – | – | – | – | 0.666 | 0.724 | 0.632 | 0.723 | 0.413 | 0.505 | 0.288 | 0.412
Calu-6 | – | – | – | – | – | – | – | – | – | – | – | – | – | – | 0.779 | – | 0.939 | 0.698
ChaGo-K-1 | 0.959 | 0.87 | 0.967 | 0.9 | 0.887 | 0.939 | 0.902 | 0.922 | 0.858 | 0.904 | 0.545 | 0.579 | 0.509 | 0.597 | 0.757 | 0.965 | 0.432 | 0.78
